This is an account of results in publication PMC12656849 (Viruses, 2025).

One may read the IC50 as the concentration that inhibits the measured activity by half. A high value points to weaker potency in that assay. As a reminder, the Km is the concentration of substrate that gives half-maximal velocity.

Data set [1] concerns the target T1, MPXV H1 (Monkeypox virus, UniProt A0A7H0DN78). Briefly: biochemical.
The next data set relates to VARV H1. The settings on record: cited from earlier work.
In the next data set the test system is MPXV. Conditions: cited from earlier work.
Data set [2] addresses T1, MPXV H1. It counts as biochemical. The settings on record: read-out: Michaelis constant (Km); pH 6.5.
The test system of another data set is mpox. The settings on record: in vivo; cited from earlier work.

Counter-ions that a name gives are not always drawn.

T1 sequence (A0A7H0DN78 whole entry, looked up): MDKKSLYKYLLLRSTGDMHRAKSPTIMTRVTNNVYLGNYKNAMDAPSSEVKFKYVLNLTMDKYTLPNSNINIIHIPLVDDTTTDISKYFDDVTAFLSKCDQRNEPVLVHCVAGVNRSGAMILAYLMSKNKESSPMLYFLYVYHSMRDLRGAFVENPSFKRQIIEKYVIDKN

`CC(C)(C)C(=O)Nc1ccc2c(c1)C(=O)C(=O)c1ccccc1-2` [Compound 35, SF1670] gave an IC50 against MPXV H1 [1] of 154 ± 12 nM.

Regarding `N#CSc1cc(SC#N)c(N)nc1N` [Compound 41, PR619], the “cytotoxicity (in words)” value in the data set on HeLa cells is given as “particularly low cytotoxicity”. This compound also gave an IC50 on MPXV H1 [1] of 176 ± 7 nM.

Turning to `CC1(C)CCC2=C(O1)c1ccccc1C(=O)C2=O` [Compound 45, Beta-lapachone], the “cytotoxicity (in words)” value in the data set on HeLa cells is listed as “particularly low cytotoxicity”. Moreover, the concentration for half-maximal inhibition (IC50) against MPXV H1 [1] worked out at 348 ± 17 nM.

For the compound `O=C1C=C(Cl)C(=O)c2ccccc21` [Compound 47, 2-Chloro-1,4-naphthoquinone], the “cytotoxicity (in words)” value with HeLa cells is listed as “particularly low cytotoxicity”. Moreover, the IC50 against MPXV H1 [1] was found to be 837 ± 56 nM.

In the case of `Cl.Oc1cccc(O)n1` [Compound 57, 2,6-Dihydroxypyridine hydrochloride], in the data set on HeLa cells, the “cytotoxicity (in words)” value is recorded as “particularly low cytotoxicity”. On MPXV H1 [1], this compound displayed an IC50 of 911 ± 64 nM.

`O=C1C(=O)c2ncccc2-c2cccnc21` [Compound 59, Phanquinone] returned a 50% inhibitory concentration (IC50) on MPXV H1 [1] of 241 ± 7 nM.

As to `CN(C)CCNc1nc2cc(O)ccc2c2c1C(=O)c1ccccc1-2` [Compound 68, TAS-103 (dihydrochloride)], in the data set on HeLa cells, the “cytotoxicity (in words)” value is listed as “substantial cytotoxicity”. The compound also showed a 50% inhibitory concentration (IC50) on MPXV H1 [1] of 865 ± 16 nM.

On to `CC(=O)c1cc2c(o1)C(=O)c1ccccc1C2=O` [Compound 75, Napabucasin], for which the “cytotoxicity (in words)” value in the data set with HeLa cells is “substantial cytotoxicity”. The compound also returned an IC50 at MPXV H1 [1] of 957 ± 40 nM.

With `CC(C)NC1=CC=CNC1N1CCN(C(=O)c2cc3cc(NS(C)(=O)=O)ccc3[nH]2)CC1` (stereo not shown) [Compound 88, Delavirdine (mesylate)], the “cytotoxicity (in words)” value in the data set with HeLa cells is recorded as “particularly low cytotoxicity”. For the same compound, inhibition at MPXV H1 [1] was half-maximal at 987 ± 48 nM (IC50).

Turning to `Cn1cccc1/C=C1\C(=O)NC(=O)c2ccccc21` [Compound 89, BYK204165], the “cytotoxicity (in words)” value with HeLa cells is given as “particularly low cytotoxicity”. The same compound returned an IC50 against MPXV H1 [1] of 794 ± 46 nM.

As to `Cc1coc2c1C(=O)C(=O)c1c-2ccc2c1CCCC2(C)C` [Compound 106, Tanshinone IIA], on MPXV H1 [1], the IC50 was 531 ± 19 nM.

`COCCn1c2c([n+](Cc3cnccn3)c1C)C(=O)c1ccccc1C2=O` [Compound 108, YM155]: the “cytotoxicity (in words)” value in the data set with HeLa cells is recorded as “substantial cytotoxicity”. At MPXV H1 [1], this compound registered a half-maximal inhibitory concentration (IC50) of 826 ± 65 nM.

`CC1=CC(=O)c2c(O)cccc2C1=O` [Compound 109, Plumbagin]: in the data set with HeLa cells, the “cytotoxicity (in words)” value was “particularly low cytotoxicity”. The same compound registered a concentration for half-maximal inhibition (IC50) against MPXV H1 [1] of 874 ± 24 nM.

At MPXV H1 [1], `Cc1c(S(=O)(=O)O)oc2c1C(=O)C(=O)c1c-2ccc2c1CCCC2(C)C` [Compound 111, Tanshinone IIA sulfonate sodium] had an IC50 of 287 ± 10 nM.

Regarding `COc1cc2c3c(c1OC)-c1ccccc1C[C@H]3N(C)CC2` [Compound 112, Nuciferine], at MPXV H1 [1], the IC50 was found to be 752 ± 9 nM.

At MPXV H1 [1], `Nc1cc(N)c(N)cc1N` [Compound 118, 1,2,4,5-Benzenetetramine tetrahydrochloride] returned a half-maximal inhibitory concentration (IC50) of 333 ± 30 nM.

`COc1ccc2c(c1OC)CC1c3c(cc4c(c3-2)OCO4)CCN1C` (stereo not shown) [Compound 122, Crebanine] yielded a half-inhibitory concentration (IC50) against MPXV H1 [1] of 229 ± 21 nM.

Regarding `COc1cc2c3c(cc4ccccc4c3c1OC)N(C)CC2` [Compound 123, Dehydronuciferine], the “cytotoxicity (in words)” value with HeLa cells is “particularly low cytotoxicity”. The compound further came in with an IC50 on MPXV H1 [1] of 356 ± 25 nM.

As to `CC(C)(c1ccc(NS(=O)(=O)C(F)(F)F)cc1)c1ccc(C(C)(C)c2ccc(NS(=O)(=O)C(F)(F)F)cc2)cc1` [PTP inhibitor IV], in the data set with VARV H1, the “potency of VARV H1 inhibition” value was “low-micromolar potency”. 18900 nM corresponded to half-maximal inhibition at MPXV H1 [1] (IC50).

For the compound `OC(c1cc(C(F)(F)F)nc2c(C(F)(F)F)cccc12)C1CCCCN1` (stereo not shown) [mefloquine], in the data set on MPXV, the “inhibition of MPXV” value was “inhibit MPXV”.

`O=[N+]([O-])c1ccc(OP(=O)(O)O)cc1` [pNPP, p-nitrophenyl phosphate]: the Michaelis-Menten constant (Km) on MPXV H1 [2] came to 1500 µM.

Turning to `O=C(NN1C(=O)[C@@H]2[C@@H]3C=C[C@@H]([C@H]4C[C@@H]34)[C@@H]2C1=O)c1ccc(C(F)(F)F)cc1` [tecovirimat], the “mpox symptom duration compared with placebo” value with mpox is “did not shorten”.
